{
  "source": "patent US9040568B2",
  "about": "“Pharmaceutical compositions for the treatment of pain” (AbbVie Inc., priority 2009, dated 2015)",
  "format_in_all_cases": "in vivo, rat",
  "key": {"[1]": {"test_system": "nerve injury induced mechanical allodynia", "assay": "Chung model of neuropathic pain (L5-L6 spinal nerve ligation, tactile allodynia, von Frey)", "experimental": "To assess whether α4β2 PAM can increase antinociceptive responses of agonists in vivo, the following study was conducted. The materials and methods used to accomplish the study follow.\nMale Sprague-Dawley rats (Charles River, Wilmington, Mass.) weighing 120-150 grams at time of surgery were utilized. These animals were group housed in AAALAC approved facilities at Abbott Laboratories in a temperature-regulated environment with lights on between 0700 and 2000 hours. Food and water was available ad libitum except during testing. All animal handling and experimental protocols were approved by an institutional animal care and use committee (IACUC). All experiments were performed during the light cycle.\n5[(2R)-Azetidin-2-ylmethoxy]-2-chloropyridine (Compound A, 1-100 nmol/kg) and 3-(3-pyridin-3-yl)-1,2,4-oxadiazol-5-yl)benzonitrile (α4β2 PAM Compound 1, 1-35 μmol/kg, i.p.) was used. Compound A and D was prepared in saline and injected in solution in a volume of 2 ml/kg body weight 30 minutes before behavioral evaluation. Compound 1,3-(3-(pyridin-3-yl)-1,2,4-oxadiazol-5-yl)benzonitrile, was prepared in 30% hydroxybetacyclodextrin and injected in solution in a volume of 4 ml/kg body weight immediately before Compound A. For studies with Compound D, the doses tested ranged from 0.3-30 μmol/kg i.p.\nTo produce neuropathic pain, tight ligation of the L5-L6 spinal nerves was performed. As previously described in detail by Kim and Chung (Kim S H and Chung J M (1992), Pain 50: 355), following sterilization procedures, a 1.5 cm incision was made dorsal to the lumbosacral plexus. The paraspinal muscles (left side) were separated from the spinous processes, the L5 and L6 spinal nerves isolated, and tightly ligated with 3-0 silk thread. Following hemostasis, the wound was sutured and coated with antibiotic ointment. The rats were allowed to recover and then placed in a cage with soft bedding for 7-14 days before behavioral testing for mechanical allodynia.\nTactile allodynia was measured using calibrated (force; g) von Frey filaments (Stoelting, Wood Dale, Ill.). Briefly, rats were placed into individual plexiglass containers and allowed to acclimate for 15-20 minutes before testing. Withdrawal threshold was determined by increasing and decreasing stimulus intensity and estimated using a Dixon non-parametric test (Chaplan et al., 1994; Chaplan S R, Bach F W, Pogrel J W, Chung J M and Yaksh T L (1994) J Neurosci Methods 53:55-63). Only rats with threshold scores<4.5 g were considered allodynic and utilized in further testing. A percent of maximal possible effect (% M.P.E.) of the tested compounds was calculated according to the formula: ([post-drug threshold]-[baseline threshold])/([maximum threshold]-[baseline threshold])×100%, where maximum threshold was equal to 15 g.\nAnalysis of the in vivo data was carried out using analysis of variance. Where appropriate, Bonferroni's Multiple Comparison Test was used for post-hoc analysis. The level of significance was set at p less than 0.05. Data are presented as mean±S.E.M."}, "[2]": {"test_system": "MIA-induced osteoarthritis pain", "assay": "Monoiodoacetate-induced osteoarthritis (MIA-OA) pain model, compressive grip force", "experimental": "Under light isoflurane (2-3%) anesthesia, MIA (3 mg) was unilateral intra-articularly injected into right hind knee joint in a volume of 50 μl as previously described (Chandran et al., 2009). Compressive grip force (CGF) was determined 20 days following MIA injection by recording the maximum compressive force exerted on the hind limb strain gauge setup, using a commercially available grip force measurement system (Columbus Instruments, Columbus, Ohio). In this assay, each rat was gently restrained and the hind paw was allowed to grasp the wire mesh frame (10×12 cm) attached to the strain gauge. The animal was then moved in a rostral-to-caudal direction until the grip was broken, and CGF reading expressed as g was recorded. Each rat was sequentially tested twice at approximately 2-3 min intervals to obtain an average raw CGF. To avoid confounding factor of body weight, CGF was converted into CGFbody following the formula: g (CGF)÷kg (body weight). CGF was assessed 30 min following i.p. compound administration. The vehicle control group was taken as 0%, whereas the age-matched naïve group was described as 100% (normal), the analgesic efficacy was expressed as the percentage return of CGFbody to normalcy vs. the naïve group: [(treatment-vehicle)/(naïve-vehicle)]×100%. Experiments were performed in animals 20 days following MIA knee joint injection, since this is the time point that maximal reduction of grip force observed in the time-course experiment (Chandran et al., 2009)."}, "[3]": {"test_system": "carrageenan-induced acute inflammatory thermal hyperalgesia", "assay": "Carrageenan model of acute inflammatory thermal hyperalgesia", "settings": "for increase of the PWLcontra: vs vehicle", "experimental": "Acute inflammatory thermal hyperalgesia were induced by injecting 100 μl of a 1% solution of λ-carrageenan (Sigma Chemical Co., St. Louis, Mo.) in physiological saline into the plantar surface of the right hind paw. Thermal hyperalgesia measured as paw withdrawal latency (PWL) was determined, using a commercially available thermal paw stimulator (UARDG, University of California, San Diego, Calif.) as described by Hargreaves et al. (Hargreaves et al., 1988). Rats were placed into individual plastic cubicles mounted on a glass surface maintained at 30° C., where a thermal stimulus, in the form of radiant heat emitted from a focused projection bulb, was then applied to the plantar surface of each hind paw. The stimulus current was maintained at 4.50±0.05 amp, and the maximum time of exposure was set at 20.48 s to limit possible tissue damage. The elapsed time until a brisk withdrawal of the hind paw from the thermal stimulus was recorded automatically using photodiode motion sensors. The right (carrageenan injected paw) and left hind paw of each rat was tested in 3 sequential trials at approximately 5 min intervals. Carrageenan-induced thermal hyperalgesia of paw withdrawal latency (PWLcarra) was calculated as the mean of the two shortest latencies. PWL was assessed 30 min (2 h after carrageenan injection) following i.p. compound administration. PWLcarra of the vehicle control group was taken as 0%, whereas the PWL of the contralateral side (PWLcontra) of the vehicle control group was taken as 100%, the analgesic efficacy was expressed as the percentage return of PWLcarra to PWLcontra."}, "[4]": {"settings": "Compound A 10 nmol/kg combined with Compound 1 (3.5 μmol/kg)"}, "[5]": {"settings": "co-administration of Compound 1"}},
  "data": [
    {"smiles": "Clc1ccc(OC[C@H]2CCN2)cn1", "note": "[Compound A, 5-[(2R)-azetidin-2-ylmethoxy]-2-chloropyridine]", "values": [
      {"measurement": "efficacy in neuropathic pain", "setting": "[1]; Compound A 1 nmol/kg alone", "result": "ineffective"},
      {"measurement": "efficacy in neuropathic pain", "setting": "[1]; Compound A 1 nmol/kg combined with varying doses of Compound 1", "result": "dose-dependent increase in efficacy"},
      {"measurement": "mechanical paw withdrawal threshold (PWT)", "setting": "[1]; Compound A co-administered with Compound 1 (PAM)", "result": "12.1 ± 0.5", "unit": "g"},
      {"measurement": "percent return of grip force to normalcy", "setting": "[2]; Compound A 0.3 nmol/kg combined with Compound 1 (3.5 μmol/kg)", "result": "29±2", "unit": "%"},
      {"measurement": "CGFbody", "setting": "[2]; Compound A 0.3 nmol/kg/kg in the presence of Compound 1 (3.5 μmol/kg)", "result": "657 ± 21", "unit": "g"},
      {"measurement": "percent return of grip force to normalcy", "setting": "[2]; Compound A 1 nmol/kg combined with Compound 1 (3.5 μmol/kg)", "result": "50±3", "unit": "%"},
      {"measurement": "CGFbody", "setting": "[2]; Compound A 1 nmol/kg/kg in the presence of Compound 1 (3.5 μmol/kg)", "result": "855 ± 28", "unit": "g"},
      {"measurement": "percent return of grip force to normalcy", "setting": "[2]; Compound A 3 nmol/kg combined with Compound 1 (3.5 μmol/kg)", "result": "66±5", "unit": "%"},
      {"measurement": "CGFbody", "setting": "[2]; Compound A 3 nmol/kg/kg in the presence of Compound 1 (3.5 μmol/kg)", "result": "971 ± 35", "unit": "g"},
      {"measurement": "percent return of grip force to normalcy", "setting": "[2]; [4]", "result": "92±6", "unit": "%"},
      {"measurement": "CGFbody", "setting": "[2]; Compound A 10 nmol/kg/kg in the presence of Compound 1 (3.5 μmol/kg)", "result": "1243 ± 56", "unit": "g"},
      {"measurement": "CGFbody", "setting": "[2]; Compound A alone, 1 nmol/kg", "result": "575 ± 37", "unit": "g"},
      {"measurement": "percent return of grip force to normalcy", "setting": "[2]; Compound A alone, 1 nmol/kg", "result": "20±4", "unit": "%"},
      {"measurement": "CGFbody", "setting": "[2]; Compound A alone, 3 nmol/kg", "result": "717 ± 64", "unit": "g"},
      {"measurement": "percent return of grip force to normalcy", "setting": "[2]; Compound A alone, 3 nmol/kg", "result": "35±6", "unit": "%"},
      {"measurement": "CGFbody", "setting": "[2]; Compound A alone, 10 nmol/kg", "result": "992 ± 45", "unit": "g"},
      {"measurement": "percent return of grip force to normalcy", "setting": "[2]; Compound A alone, 10 nmol/kg", "result": "65±5", "unit": "%"},
      {"measurement": "CGFbody", "setting": "[2]; Compound A alone, 30 nmol/kg", "result": "1234 ± 37", "unit": "g"},
      {"measurement": "percent return of grip force to normalcy", "setting": "[2]; Compound A alone, 30 nmol/kg", "result": "90±4", "unit": "%"},
      {"measurement": "ED50", "setting": "[2]; Rattus norvegicus, Compound A alone, read-out: ED50 (return of grip force to normalcy)", "result": 0.0046, "unit": "µmol/kg"},
      {"measurement": "leftward shift in the DRC of Compound A", "setting": "[2]; [5]", "result": 5, "unit": "fold"},
      {"measurement": "percent reversal of thermal hyperalgesia", "setting": "[3]; [4]", "result": "31±13", "unit": "%"},
      {"measurement": "PWLcarra", "setting": "[3]; Compound A 10 nmol/kg i.p. in the presence of Compound 1 (3.5 μmol/kg)", "result": "5.29 ± 0.91", "unit": "s"},
      {"measurement": "percent reversal of thermal hyperalgesia", "setting": "[3]; Compound A 30 nmol/kg combined with Compound 1 (3.5 μmol/kg)", "result": "46±10", "unit": "%"},
      {"measurement": "PWLcarra", "setting": "[3]; Compound A 30 nmol/kg i.p. in the presence of Compound 1 (3.5 μmol/kg)", "result": "6.35 ± 0.71", "unit": "s"},
      {"measurement": "percent reversal of thermal hyperalgesia", "setting": "[3]; Compound A 100 nmol/kg combined with Compound 1 (3.5 μmol/kg)", "result": "84±12", "unit": "%"},
      {"measurement": "PWLcarra", "setting": "[3]; Compound A 100 nmol/kg i.p. in the presence of Compound 1 (3.5 μmol/kg)", "result": "8.94 ± 0.79", "unit": "s"},
      {"measurement": "percent reversal of thermal hyperalgesia", "setting": "[3]; Compound A alone, 100 nmol/kg", "result": "28±5", "unit": "%"},
      {"measurement": "PWLcarra", "setting": "[3]; Compound A alone, 100 nmol/kg i.p.", "result": "5.46 ± 0.36", "unit": "s"},
      {"measurement": "percent reversal of thermal hyperalgesia", "setting": "[3]; Compound A alone, 300 nmol/kg", "result": "74±9", "unit": "%"},
      {"measurement": "PWLcarra", "setting": "[3]; Compound A alone, 300 nmol/kg i.p.", "result": "8.80 ± 0.65", "unit": "s"},
      {"measurement": "increase of the PWLcontra", "setting": "[3]; Compound A and Compound 1 co-administered animals", "result": "not statistically significant"},
      {"measurement": "increase of the PWLcontra", "setting": "[3]; Compound A treated animals", "result": "not statistically significant"},
      {"measurement": "ED50", "setting": "[3]; Rattus norvegicus, Compound A alone, read-out: ED50 (reversal of thermal hyperalgesia)", "result": 0.16, "unit": "µmol/kg"},
      {"measurement": "leftward shift in the DRC of Compound A", "setting": "[3]; [5]", "result": 5, "unit": "fold"}
    ]},
    {"smiles": "N#Cc1cccc(-c2nc(-c3cccnc3)no2)c1", "note": "[Example 1, 3-(3-(pyridin-3-yl)-1,2,4-oxadiazol-5-yl)benzonitrile]", "values": [
      {"measurement": "effect on the dose response curve of Compound A", "setting": "[1]; Compound 1 3.5 μmol/kg with various doses of Compound A", "result": "left-shifting the dose response curve of Compound A"},
      {"measurement": "efficacy in neuropathic pain", "setting": "[1]; administered alone", "result": "ineffective"},
      {"measurement": "return of grip force normalcy", "setting": "[2]; Compound 1 alone, 3.5 μmol/kg i.p.", "result": "produced no return of grip force normalcy"},
      {"measurement": "alteration of PWLcarra", "setting": "[3]; Compound 1 alone, up to 35 μmmol/kg, i.p.", "result": "produced no alteration of PWLcarra"}
    ]}
  ]
}
